Patent publication US10227348B2, “Use of 10H-benzo[g]pteridine-2,4-dione derivatives” (TriOptoTec GmbH, priority 2011, dated 2019)

Key:
[1] = test system: Escherichia coli (ATCC number: 25922); test: Phototoxicity test (photodynamic inactivation, CFU/ml by Miles and Misra); format: cell-based; details: E. coli; irradiation at 10.5 J/cm^2 (50 mW/cm^2, 210 sec, 390-500 nm); incubation 10 min or 30 min; CFU/ml after 24 h
Protocol: (§1) A sample of the bacterial strain Staphylococcus aureus (ATCC number: 25923) or Escherichia coli (ATCC number: 25922) was taken from a cryogenically frozen culture, isolated on Müller-Hinton agar plates and cultivated under aerobic conditions at 37° C. in an overnight culture. Thereafter, 5 ml of Müller-Hinton liquid medium were inoculated with a smear of the bacterial culture (single colony) and incubated at 37° C. overnight. The bacterial suspension thus obtained was centrifuged at 2500 rpm for 10 min and the bacterial pellet obtained was resuspended in 5 ml of sterile PBS. The optical density of the bacterial suspensions for the phototoxicity tests was OD600nm=0.6, which corresponds to a bacteria count of ˜[…] bacteria per ml. The biochemical analysis and resistance determination of the bacteria were conducted with the VITEK2 system according to the M100-S14 guidelines from the NCCLS (2004).
(§2) 200 μl of a bacterial suspension (bacterial density: 10^8-10^12/ml) were incubated with 200 μl of each of various concentrations of the photosensitizers to be tested at room temperature for 10 min or 30 min. Thereafter, the bacteria were washed twice with distilled water and resuspended in 200 μl of distilled water, and the entire volume was transferred to a 96-well microtiter plate and then irradiated. The photosensitizers used were dissolved in distilled water and various dilution series were prepared (0 μM, 1 μM, 10 μM, 100 μM).
(§3) For sensitization, the Omnicure Series 2000 lamp (Photonics Solutions Inc., Edinburgh, UK) was used, which emits light from a range from 390 nm to 500 nm and has emission maxima Emax at 405 nm and 436 nm. The power applied in each case was 50 mW/cm^2.
(§4) Irradiated and unirradiated samples were used as controls. Likewise run were bacterial suspensions incubated only with photosensitizer (dark control).
(§5) The determination of the colony-forming units (CFU) per ml was conducted by the method published by Miles and Misra (Miles, A A; Misra, S S, Irwin, J O (1938 November). “The estimation of the bactericidal power of the blood.”. The Journal of hygiene 38 (6): 732-49). For this purpose, serial dilutions from 10^−2 to 10^−9 of the corresponding bacterial suspension were prepared. 3×20 μl of each of the corresponding bacterial dilutions were then dripped onto Müller-Hinton plates and incubated at 37° C. for 24 h. Thereafter, the number of surviving colony-forming units (CFU) was determined. Each of the experiments was repeated three times.
(§6) The effectiveness of phototoxicity with respect to bacteria after irradiation was defined according to the following guidelines for hand hygiene in the health sector (Boyce, J. M., and D. Pittet. 2002. Guideline for Hand Hygiene in Health-Care Settings: recommendations of the Healthcare Infection Control Practices Advisory Committee and the HICPAC/SHEA/APIC/IDSA Hand Hygiene Task Force. Infect Control Hosp Epidemiol 23: p. 3-40): • reduction in the CFU/ml by 1 log10 stage≙90% effectiveness • reduction in the CFU/ml by 3 log10 stages≙99.9% effectiveness • reduction in the CFU/ml by 5 log10 stages≙99.999% effectiveness
(§7) For effective inactivation, the decrease of ≥3 log10 stages can therefore be adopted, and S. aureus and E. coli were chosen as examples of representatives from the group of the Gram-positive and Gram-negative bacteria (see Boyce J. M and D. Pittet 2009).

[2] = test system: Staphylococcus aureus (ATCC number: 25923); test: as above; format: cell-based; details: S. aureus; irradiation at 10.5 J/cm^2 (50 mW/cm^2, 210 sec, 390-500 nm); incubation 10 min or 30 min; CFU/ml after 24 h
Protocol: as §1, §2, §3, §4, §5, §6, §7

Row | SMILES | Required concentration to achieve a reduction by ≥3 log10 stages (decrease by 99.9%) [1] | Required concentration to achieve a reduction by ≥3 log10 stages (decrease by 99.9%) [2]
1 | Cc1cc2nc3c(=O)[nH]c(=O)nc-3n(CCN)c2cc1C [FL-01] | 10 μM | 10 μM
2 | COCCn1c2nc(=O)n(CCN)c(=O)c-2nc2cc(C)c(C)cc21 [FL-03] | >100^(*^) μM | 10 μM
3 | COCCn1c2nc(=O)n(CCNC(=N)N)c(=O)c-2nc2cc(C)c(C)cc21 [FL-04] | >100^(*^) μM | 50 μM
4 | Cc1cc2nc3c(=O)[nH]c(=O)nc-3n(CCOCCOCCN)c2cc1C [FL-05] | >100^(*^) μM | 100 μM
